Each molecule was assayed against PIK3CA (human) (UniProt P42336) (assay: Assessment of PIK3CA Kinase Activity).
PIK3CA (human), sequence (P42336 whole entry, looked up): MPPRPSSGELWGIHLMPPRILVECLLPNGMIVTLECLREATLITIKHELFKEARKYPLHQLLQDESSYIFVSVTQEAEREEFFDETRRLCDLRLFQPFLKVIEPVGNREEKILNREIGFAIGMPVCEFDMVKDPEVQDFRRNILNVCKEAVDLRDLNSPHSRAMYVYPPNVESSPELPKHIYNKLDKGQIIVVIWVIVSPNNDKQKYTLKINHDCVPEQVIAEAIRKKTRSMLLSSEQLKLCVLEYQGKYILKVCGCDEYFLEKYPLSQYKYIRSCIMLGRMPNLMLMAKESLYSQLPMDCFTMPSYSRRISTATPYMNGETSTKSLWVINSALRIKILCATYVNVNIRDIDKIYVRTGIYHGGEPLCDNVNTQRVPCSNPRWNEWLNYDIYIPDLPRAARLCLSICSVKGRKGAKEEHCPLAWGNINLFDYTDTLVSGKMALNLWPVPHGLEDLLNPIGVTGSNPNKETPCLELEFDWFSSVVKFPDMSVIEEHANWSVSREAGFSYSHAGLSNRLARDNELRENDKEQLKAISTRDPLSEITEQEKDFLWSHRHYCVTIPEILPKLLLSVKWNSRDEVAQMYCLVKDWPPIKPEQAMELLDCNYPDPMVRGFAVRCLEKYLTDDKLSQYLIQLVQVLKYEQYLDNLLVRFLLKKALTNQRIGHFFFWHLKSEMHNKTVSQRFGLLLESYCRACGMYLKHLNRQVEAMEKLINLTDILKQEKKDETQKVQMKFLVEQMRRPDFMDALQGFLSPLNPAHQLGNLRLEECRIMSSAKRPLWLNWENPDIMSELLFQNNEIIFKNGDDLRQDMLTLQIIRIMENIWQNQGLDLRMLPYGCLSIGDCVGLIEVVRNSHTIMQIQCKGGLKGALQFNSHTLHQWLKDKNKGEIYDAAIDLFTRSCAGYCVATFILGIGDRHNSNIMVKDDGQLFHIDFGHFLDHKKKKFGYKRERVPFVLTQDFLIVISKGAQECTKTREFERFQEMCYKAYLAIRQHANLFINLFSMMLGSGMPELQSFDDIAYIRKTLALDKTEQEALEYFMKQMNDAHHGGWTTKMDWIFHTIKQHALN

Row | IC50 [µM] | SMILES
1 | < 1 | C[C@@H]1CN(c2ccc3c(n2)-c2sc(-c4ncnn4-c4ccc(F)cc4F)cc2CCO3)C[C@H](C)N1C
2 | < 1 | CC(C)n1ncnc1-c1nc2c(s1)CCOc1cc(C3CN(CC(=O)N4CCOCC4)C3)ccc1-2
3 | < 1 | CC1(C)CCCN(C(=O)c2nc3c(s2)CCOc2cc(-c4cn[nH]c4)ccc2-3)C1
4 | < 1 | CN(C)C(=O)c1nc2c(s1)CCOc1cc(-c3cn[nH]c3)ccc1-2
5 | < 1 | C[C@H](O)CNC(=O)c1ccc(Cl)c(N(C)C(=O)c2cc3c(s2)-c2ccc(C(=O)NCCS(C)(=O)=O)cc2OCC3)c1
6 | < 1 | CC(C)N1CCN(c2ccc3c(n2)-c2sc(-c4ncnn4-c4ccc(F)cc4F)cc2CCO3)CC1
7 | < 1 | CC(C)CN(C)C(=O)c1nc2c(s1)CCOc1cc(-c3cn[nH]c3)ccc1-2
8 | < 1 | C[C@@H]1CCCN1C(=O)c1nc2c(s1)CCOc1cc(-c3cn[nH]c3)ccc1-2
9 | < 1 | Cc1nc(-c2nc3c(s2)CCOc2cc([C@@H]4CCCNC4)ccc2-3)n(C(C)C)n1
10 | < 1 | CC(C)n1ncnc1-c1nc2c(s1)CCOc1ccc(C3CCN(C(=O)[C@H](C)O)CC3)cc1-2
11 | < 1 | COCCN1CC(c2ccc3c(c2)OCCc2sc(-c4nc(C)nn4C(C)C)nc2-3)C1
12 | < 1 | CC(C)n1ncnc1-c1nc2c(s1)CCOc1cc(C3CN(C(=O)[C@H](C)O)C3)ccc1-2
13 | < 1 | O=C(O)Cn1cc(-c2ccc3c(c2)OCCc2sc(-c4ncnn4CC(F)(F)F)nc2-3)cn1
14 | < 1 | CC(C)(O)Cn1cc(-c2ccc3c(c2)OCCc2sc(-c4ncnn4Cc4ccncc4)nc2-3)cn1
15 | < 1 | CC(C)n1ncnc1-c1nc2c(s1)CCOc1cc(C3CN(C(=O)[C@@H](C)O)C3)ccc1-2
16 | < 1 | CC(O)Cn1ncnc1-c1nc2c(s1)CCOc1cc(-c3cnn(CC(C)(C)O)c3)ccc1-2 (configuration not stated)
17 | < 1 | CC(=O)N1CCN(C(=O)c2nc3c(s2)CCOc2cc(-c4cn[nH]c4)ccc2-3)CC1
18 | < 1 | CC(C)n1ncnc1-c1nc2c(s1)CCOc1ccc(-c3ccc(N4CCOCC4)nc3)cc1-2
19 | < 1 | CC(=O)N1CC2CC1CN2c1ccc2c(n1)-c1sc(-c3ncnn3-c3ccc(F)cc3F)cc1CCO2 (configuration not stated)
20 | < 1 | CN1CCC(n2ncnc2-c2nc3c(s2)CCOc2cc(-c4cnn(CCO)c4)ccc2-3)CC1
21 | < 1 | CS(=O)(=O)N1CCN(C(=O)c2nc3c(s2)CCOc2cc(-c4cn[nH]c4)ccc2-3)CC1
22 | < 1 | NC(=O)CNc1ccc2c(n1)-c1sc(-c3ncnn3-c3ccc(F)cc3F)cc1CCO2

Row | IC50 [µM] | SMILES
23 | < 1 | CC(C)n1ncnc1-c1nc2c(s1)CCOc1ccc(C3CN(Cc4ccc(F)cc4F)C3)cc1-2
24 | < 1 | Cc1cc(-c2ccc3c(n2)-c2sc(-c4ncnn4-c4ccc(F)cc4F)cc2CCO3)cnc1N1CCOCC1
25 | < 1 | CC(C)n1ncnc1-c1nc2c(s1)CCOc1ccc(-c3cccn(CCN4CCOCC4)c3=O)cc1-2
26 | < 1 | Cc1nc(-c2nc3c(s2)CCOc2cc(C4COC4)ccc2-3)n(C(C)C)n1
27 | < 1 | CC(C)n1cnnc1-c1nc2c(s1)CCOc1cc(CNCCO)ccc1-2
28 | < 1 | CC(C)n1nc(N)nc1-c1nc2c(s1)CCOc1cc(F)ccc1-2
29 | < 1 | Cc1nc(-c2nc3c(s2)CCOc2cc(CNS(C)(=O)=O)ccc2-3)n(C(C)C)n1
30 | < 1 | COCC(O)CN1CC(c2ccc3c(c2)OCCc2sc(-c4nc(C)nn4C(C)C)nc2-3)C1 (configuration not stated)
31 | < 1 | COCCNc1ccc(-c2ccc3c(n2)-c2sc(-c4ncnn4-c4ccc(F)cc4F)cc2CCO3)cn1
32 | < 1 | OCCn1cc(-c2ccc3c(c2)OCCc2sc(-c4ncnn4Cc4ccncc4)nc2-3)cn1
33 | < 1 | CC1(C)C(=O)NC(=O)N1c1nc2c(s1)CCOc1ccccc1-2
34 | < 1 | Fc1ccc(-n2ncnc2-c2cc3c(s2)-c2nc(-c4ccc(N5CCCC5)nc4)ccc2OCC3)c(F)c1
35 | < 1 | CNC(=O)Cn1ccnc1-c1nc2c(s1)CCOc1cc(-c3cnn(CC(C)(C)O)c3)ccc1-2
36 | < 1 | Cc1nc(-c2nc3c(s2)CCOc2cc(C4CN(CCF)C4)ccc2-3)n(C(C)C)n1
37 | < 1 | CC(C)CCN(C)C(=O)c1nc2c(s1)CCOc1cc(-c3cn[nH]c3)ccc1-2
38 | < 1 | O=C(c1nc2c(s1)CCOc1cc(-c3cn[nH]c3)ccc1-2)N1CC[C@@H](N2CCOCC2)C1
39 | < 1 | CC(C)n1ncnc1-c1nc2c(s1)CCOc1ccc(C3CCN(CC(N)=O)CC3)cc1-2
40 | < 1 | CC(C)n1ncnc1-c1nc2c(s1)CCOc1cc(-c3cn(CCO)cn3)ccc1-2
41 | < 1 | COc1ccc(-c2ccc3c(n2)-c2sc(-c4ncnn4-c4ccc(F)cc4F)cc2CCO3)cn1
42 | < 1 | O=C(c1nc2c(s1)CCOc1cc(-c3cn[nH]c3)ccc1-2)N1CCCCC1
43 | < 1 | CC(O)CCc1ccc2c(n1)-c1sc(-c3ncnn3-c3ccc(F)cc3F)cc1CCO2 (configuration not stated)
44 | < 1 | O=C(c1nc2c(s1)CCOc1cc(-c3cn[nH]c3)ccc1-2)N1CCC(O)CC1

Row | IC50 [µM] | SMILES
45 | < 1 | Cc1nc(-c2nc3c(s2)CCOc2cc(C4CN(CCCO)C4)ccc2-3)n(C(C)C)n1
46 | < 1 | OCCn1cc(-c2ccc3c(c2)OCCc2sc(-c4ncnn4CCN4CCOCC4)nc2-3)cn1
47 | < 1 | CN(C[C@H]1CCCO1)C(=O)c1nc2c(s1)CCOc1cc(-c3cn[nH]c3)ccc1-2
48 | < 1 | CC(C)n1ncnc1-c1nc2c(s1)CCOc1cc(C3(F)CCN(CC(=O)N(C)C)CC3)ccc1-2
49 | < 1 | Cc1nc(N)ncc1-c1ccc2c(c1)-c1nc(C(=O)N(CCO)C(C)C)sc1CCO2
50 | < 1 | O=C(c1nc2c(s1)CCOc1cc(-c3cn[nH]c3)ccc1-2)N1CCN(C[C@H]2CCCO2)CC1
51 | < 1 | Cc1nc(-c2nc3c(s2)CCOc2cc(C4CN(CCS(C)(=O)=O)C4)ccc2-3)n(C(C)C)n1
52 | < 1 | O=C(c1nc2c(s1)CCOc1cc(-c3cn[nH]c3)ccc1-2)N1CCN(c2cnccn2)CC1
53 | < 1 | Cc1nc(-c2nc3c(s2)CCOc2cc(-c4cnn(C5CN(CCO)C5)c4)ccc2-3)n(C(C)C)n1
54 | < 1 | CC(C)n1ncnc1-c1nc2c(s1)CCOc1ccc(-c3cccn(CC(=O)N(C)C)c3=O)cc1-2
55 | < 1 | O=C(c1nc2c(s1)CCOc1cc(-c3cn[nH]c3)ccc1-2)N1CCC1
56 | < 1 | CC(C)(O)Cn1cc(-c2ccc3c(c2)OCCc2sc(N4C(=O)NC(=O)C4(C)C)nc2-3)cn1
57 | < 1 | CN1C(=O)N(c2nc3c(s2)CCOc2cc(-c4cnn(CC(C)(C)O)c4)ccc2-3)C(C)(C)C1=O
58 | < 1 | O=C(c1nc2c(s1)CCOc1cc(-c3cn[nH]c3)ccc1-2)N1CCN(CC2CC2)CC1
59 | < 1 | CC(C)N(CCO)C(=O)c1nc2c(s1)CCOc1ccc(-c3cnc(N)nc3)cc1-2
60 | < 1 | CNC(=O)C(C)(C)N1CC(c2ccc3c(c2)OCCc2sc(-c4ncnn4C(C)C)nc2-3)C1
61 | < 1 | C[C@@H]1CN(c2ccc3c(n2)-c2sc(-c4ncnn4-c4ccc(F)cc4F)cc2CCO3)C[C@H](C)N1CC(F)F
62 | < 1 | CN(C)CCCOc1ccc(-c2ccc3c(c2)OCCc2sc(-c4ncnn4CC(F)(F)F)nc2-3)cn1
63 | < 1 | CC(C)n1ncnc1-c1nc2c(s1)CCOc1ccc(-c3cccn(CC(=O)O)c3=O)cc1-2
64 | < 1 | Fc1ccc(-n2ncnc2-c2cc3c(s2)-c2nc(-c4ccc(NCCN5CCOCC5)nc4)ccc2OCC3)c(F)c1
65 | < 1 | CC(C)n1ncnc1-c1nc2c(s1)CCOc1ccc(-c3cccn(C(C)C)c3=O)cc1-2
66 | < 1 | Cc1nc(-c2nc3c(s2)CCOc2cc(-c4cnn(C5CN(CC(C)(C)O)C5)c4)ccc2-3)n(C(C)C)n1

Row | IC50 [µM] | SMILES
67 | < 1 | CC(C)n1ncnc1-c1nc2c(s1)CCOc1ccc(C3CN(Cc4ccccc4Cl)C3)cc1-2
68 | < 1 | CN1CCC(CNc2ccc3c(n2)-c2sc(-c4ncnn4-c4ccc(F)cc4F)cc2CCO3)CC1
69 | < 1 | CC(C)n1ncnc1-c1nc2c(s1)CCOc1cc(C3CN(S(=O)(=O)CCO)C3)ccc1-2
70 | < 1 | CN1CCN(CCNc2ccc3c(n2)-c2sc(-c4ncnn4-c4ccc(F)cc4F)cc2CCO3)CC1
71 | < 1 | CS(=O)(=O)n1cc(-c2ccc3c(c2)OCCc2sc(-c4ncnn4CC(F)(F)F)nc2-3)cn1
72 | < 1 | CC(C)n1ncnc1-c1nc2c(s1)CCOc1ccc(-c3ccc(S(C)(=O)=O)cc3)cc1-2
73 | < 1 | Cc1cc(-c2ccc3c(n2)-c2sc(-c4ncnn4-c4ccc(F)cc4F)cc2CCO3)cnc1N1CCN(C)CC1
74 | < 1 | Cc1nn(C)c(=O)n1-c1nc2c(s1)CCOc1cc(-c3cnn(CC(C)(C)O)c3)ccc1-2
75 | < 1 | CS(=O)(=O)N1CCN(c2ccc3c(n2)-c2sc(-c4ncnn4-c4ccc(F)cc4F)cc2CCO3)CC1
76 | < 1 | CN(C)CCNc1ccc(-c2ccc3c(n2)-c2sc(-c4ncnn4-c4ccc(F)cc4F)cc2CCO3)cn1
77 | < 1 | CC(C)N(CCO)C(=O)c1nc2c(s1)CCOc1ccc(-c3cnn(CC(C)(C)O)c3)cc1-2
78 | < 1 | Cc1nc(-c2nc3c(s2)CCOc2cc(CNC(N)=O)ccc2-3)n(C(C)C)n1
79 | < 1 | Cc1cnc(F)c(-c2ccc3c(c2)-c2nc(-c4ncnn4C(C)C)sc2CCO3)c1
80 | < 1 | Nc1ccc2c(n1)-c1sc(-c3ncnn3-c3ccc(F)cc3F)cc1CCO2
81 | < 1 | O=C(c1nc2c(s1)CCOc1cc(-c3cn[nH]c3)ccc1-2)N1CCN(C(=O)C(F)(F)F)CC1
82 | < 1 | Cc1ccc(-c2ccc3c(n2)-c2sc(-c4ncnn4-c4ccc(F)cc4F)cc2CCO3)cn1
83 | < 1 | CC(=O)N1CCC(N(CCO)C(=O)c2nc3c(s2)CCOc2cc(-c4cnn(CC(C)(C)O)c4)ccc2-3)CC1
84 | < 1 | CC(C)(O)Cn1cc(-c2ccc3c(c2)OCCc2sc(N4C(=O)NCC4(C)C)nc2-3)cn1
85 | < 1 | CC(C)n1ncnc1-c1nc2c(s1)CCOc1ccc(-c3cc[nH]c(=O)c3)cc1-2
86 | < 1 | O=C(O)C1CCCN(C(=O)c2nc3c(s2)CCOc2cc(-c4cn[nH]c4)ccc2-3)C1 (configuration not stated)
87 | < 1 | CC(C)n1ncnc1-c1nc2c(s1)CCOc1cc(C3CN(C(=O)C(C)(C)O)C3)ccc1-2

Reference: the Kinase Knowledgebase extract (Sharma et al. 2016)
